In PubChem BioAssay AID977613 (Broad Institute, 2014):
The source made the active and inactive calls. How the calls were made is not given here.

What follows are molecules tested on Broad 7084-01 inhibitor HTS, set 2 (assay: inhibitors in Broad screen 7084-01, set 2 (AID 977613);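 further: host cells are infected with parasite promastigotes that become internalized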).

Compound | active concentration
O=C(C[C@@H]1CC[C@H]2[C@@H](COC[C@@H](O)CN2CC2CC2)O1)NCC1CC1 | > 10 µM (inactive)
O=C(C[C@@H]1CC[C@H]2[C@@H](COC[C@H](O)CN2Cc2ccc(Cl)cc2)O1)NCc1ccccc1Cl | > 10 µM (inactive)
CN1[C@@H]2CNc3ccccc3[C@@H]2[C@@H]1CO | > 10 µM (inactive)
COc1cccc(C(=O)Nc2ccc3c(c2)C(=O)N(C)[C@@H]2CC[C@H](CC(=O)NCCCN4CCOCC4)O[C@H]2CO3)c1 | > 10 µM (inactive)
Cc1ccc(-c2ccccc2[C@H]2[C@@H](C#N)N(c3ncc(-c4ccccc4)s3)[C@@H]2CO)cc1 | > 10 µM (inactive)
CN1C(=O)c2cc(NC(=O)Nc3ccccc3Cl)ccc2OC[C@H]2O[C@H](CC(=O)NCCCN3CCOCC3)CC[C@@H]21 | > 10 µM (inactive)
CN1C[C@@H]2[C@H](c3ccccc31)[C@H](CO)N2Cc1ccccc1Cl | > 10 µM (inactive)
OC[C@@H]1[C@H](c2ccc(C#CC3(O)CCCC3)cc2)[C@@H]2CN(Cc3cncnc3)CCCCN12 | > 10 µM (inactive)
O=C1CNC[C@@H]2[C@H](c3ccc(-c4ccccc4F)cc3)[C@@H](CO)N12 | > 10 µM (inactive)
CCCC#Cc1ccc([C@H]2[C@@H](CO)N3C(=O)CN(C(=O)CN4CCOCC4)C[C@@H]23)cc1 | > 10 µM (inactive)
COc1ccccc1CN1[C@@H]2CN(C(=O)C3CCCCC3)c3ccccc3[C@@H]2[C@@H]1CO | > 10 µM (inactive)
O=C(Nc1ccccc1)N1CC(=O)N2[C@H](CO)[C@@H](c3ccc(C#CC4CCCCC4)cc3)[C@@H]2C1 | > 10 µM (inactive)
O=C(C[C@@H]1CC[C@@H]2[C@H](COC[C@@H](O)CN2Cc2ccc(Cl)cc2)O1)NCc1ccccc1Cl | > 10 µM (inactive)
O=C(C[C@H]1CC[C@H]2[C@@H](COC[C@@H](O)CN2CC2CCOCC2)O1)NCC1CCCCC1 | > 10 µM (inactive)
CCCNC(=O)N1[C@H](CO)[C@@H](c2ccccc2C2=CCCCC2)[C@@H]1C#N | > 10 µM (inactive)
CC(C)C#Cc1ccc([C@H]2[C@@H](CO)N3C(=O)CN(C(=O)Cc4ccccc4)C[C@H]23)cc1 | > 10 µM (inactive)
COc1ccccc1CNC(=O)C[C@@H]1CC[C@@H]2[C@H](COC[C@H](O)CN2C(=O)Nc2ccccc2)O1 | > 10 µM (inactive)

Compound | active concentration
CCCNC(=O)N1CC2(C1)CN(Cc1ccc(F)cc1)[C@H](CO)c1[nH]c3cc(OC)ccc3c12 | > 10 µM (inactive)
CCNC(=O)C[C@@H]1CC[C@H]2[C@@H](COC[C@@H](O)CN2C(=O)C2CC2)O1 | > 10 µM (inactive)
O=C(C[C@H]1CC[C@@H]2[C@H](COC[C@H](O)CN2C(=O)Cc2ccccc2)O1)NC1CCCC1 | > 10 µM (inactive)
CCCC#Cc1ccc([C@@H]2[C@@H](CO)N3CCCCN(CCC)C[C@@H]23)cc1 | > 10 µM (inactive)
O=C(C1CCCCC1)N1C[C@@H]2[C@H](c3ccccc31)[C@H](CO)N2C(=O)Cc1ccccn1 | > 10 µM (inactive)
N#Cc1cccc(-c2ccc3c(c2)[C@@H]2[C@@H](CCN2S(=O)(=O)c2ccc(F)cc2)[C@H](CO)N3)c1 | > 10 µM (inactive)
N#C[C@@H]1[C@H](c2ccccc2C2=CCCCC2)[C@H](CO)N1S(=O)(=O)c1cccc(F)c1 | > 10 µM (inactive)
O=C(C[C@H]1CC[C@@H]2[C@H](COC[C@@H](O)CN2C(=O)C2CC2)O1)NCc1ccncc1 | > 10 µM (inactive)
O=C(C[C@@H]1CC[C@@H]2[C@H](COC[C@@H](O)CN2CC2CC2)O1)NCC1CC1 | > 10 µM (inactive)
C/C=C/c1ccc([C@H]2[C@@H](CO)N3C(=O)CN(Cc4ccc(F)cc4)C[C@@H]23)cc1 | > 10 µM (inactive)
OC[C@@H]1[C@@H]2c3ccccc3NC[C@@H]2N1Cc1ccccc1Cl | > 10 µM (inactive)
O=C(C[C@@H]1CC[C@H]2[C@@H](COC[C@@H](O)CN2Cc2cc(F)ccc2F)O1)NCc1ccc(F)cc1 | > 10 µM (inactive)
C[C@H](O)C#Cc1ccc([C@@H]2[C@@H](CO)N3CCCCN(C(=O)c4ccc5c(c4)OCO5)C[C@H]23)cc1 | > 10 µM (inactive)
COc1ccccc1-c1ccccc1[C@H]1[C@@H](CO)N(C(=O)C2CCOCC2)[C@H]1C#N | > 10 µM (inactive)
O=C(C1CCCC1)N1CC2(C1)[C@H](c1ccccc1)[C@@H](CO)N2CC1CC1 | > 10 µM (inactive)
CCCNC(=O)N1CC2(C1)[C@@H](c1ccccc1)[C@@H](CO)N2Cc1ccccn1 | > 10 µM (inactive)
COc1ccc2c3c([nH]c2c1)[C@@H](CO)N(C(=O)C1CCC1)CC31CN(C(=O)c2ccccn2)C1 | > 10 µM (inactive)
